{"source": "patent US8771764B2", "about": "“Composition and method for improving vascular health” (Malaysian Palm Oil Board, priority 2009, dated 2014)", "key": {"[1]": {"system": "Sprague-Dawley rats", "experiment": "Blood pressure study in L-NAME (nitric oxide deficient) model of hypertension, dietary OPP", "assay_type": "in vivo, rat", "text": "In order to determine the effect of OPP in blood pressure reduction, a method utilizing a nitric oxide (NO) deficient model of hypertension was used. This animal model involves the inhibition of endogenous NO production with L-NAME (N^G-nitro-L-arginine methyl ester) that leads to elevation in BP.\n12 weeks old Sprague-Dawley rats were fed a standard laboratory rat diet, formulated to contain low n-3 polyunsaturated fatty acids (Glen Forrest Stock feeders, Glen Forrest, W.A., Australia). The OPP was provided as a drink at a rate of 30 ml/rat/day. OPP were provided at two different strengths—as liquid (1500 GAE) and in a concentrated liquid form at 3000 GAE (prepared using the freeze-dried preparation at 30,000 GAE). Rats were pre-treated for four weeks prior to challenge with L-NAME. […]\nBP was monitored fortnightly by standard photoelectric tail-cuff procedure (IITC, Life Sciences, Woodlands Hills, Calif., USA) as described in detail previously. […] The pulse was detected as the cuff pressure was reduced and the pressure at which the first pulse detected was taken as the systolic blood pressure and computed automatically (IITC software package). The ambient temperature was carefully controlled (30° C.) and the average of 3-4 readings was taken as the final reading."}, "[2]": {"system": "human LDL", "experiment": "Copper-mediated LDL oxidation, conjugated diene formation", "assay_type": "biochemical", "settings": "for Lag time (mins), conjugated diene formation: control LDL 67 ± 12, means ± SD", "experimental": "Blood from six healthy normocholesterolemic adult volunteers was collected into vacutainer tubes containing EDTA and centrifuged (1000×g for 15 min) to isolate plasma. LDL was isolated by density gradient centrifugation in a Beckman Ultracentrifuge using a 50.2 Ti rotor, based on the method of Sundram et al. (2). The LDL layer following sequential isolation at density 1.063 kg/L was removed and dialyzed against 4 L of PBS, pH 7.4 and purged with nitrogen for 12-18 h. After dialysis, the cholesterol concentration in the pooled LDL sample was determined using an automated Cholesterol assay. The LDL fraction was used immediately or immediately stored under nitrogen at 4° C. and analyzed for LDL oxidation within 48 h.\nTo evaluate the ability of OPP to inhibit copper (Cu) mediated LDL oxidation, conjugated dienes (CD) were continually monitored at 5-min intervals at 37° C. by UV absorption at 234 nm. LDL oxidation was initiated by addition of copper sulfate at a final concentration of 6 μmol/L to 90 μg of LDL cholesterol in a final volume of 1 mL. The purified test compounds (catechin obtained from Sigma Chemical) and OPP extracts were added immediately before the addition of the oxidant. The extracts were added at a final concentration range of 0.25-1.0 μmol/L GAB and the purified compounds at a final concentration of 0.25 or 0.5 μmol/L. All LDL oxidations were performed in triplicate. The lag time in the presence or absence of the test compounds was determined as the intercept of the slopes for the lag and propagation phases. This was compared with the control oxidized LDL to determine the percentage of LDL oxidation inhibition."}}}
{"compound": "COC(=O)[C@@H](N)CCCNC(=N)N[N+](=O)[O-]", "note": "[L-NAME, N^G-nitro-L-arginine methyl ester]", "values": [{"measurement": "initial rise in BP on introduction of L-NAME", "setting": "[1]; L-NAME 10 mg/Kg, OPP pre-treatment 4 weeks", "value": 18, "unit": "mmHg"}, {"measurement": "final BP values", "setting": "[1]; conclusion of experiment, L-NAME 10 then 15 mg/Kg, OPP drink 30 ml/rat/day, tail-cuff systolic BP, n=12", "value": "176±2.5", "unit": "mmHg"}]}
{"compound": "catechin", "values": [{"measurement": "Lag time (mins), conjugated diene formation", "setting": "[2]; 0.25 μmol/L", "value": "87 ± 13", "unit": "min"}, {"measurement": "LDL lag phase lengthened / increase in lag time relative to control LDL", "setting": "[2]; 0.5 μmol/L", "value": 55, "unit": "%"}, {"measurement": "Lag time (mins), conjugated diene formation", "setting": "[2]; 0.5 μmol/L", "value": "104 ± 10", "unit": "min"}]}
